Test results from PubChem BioAssay AID2053 (NMMLSC, 2009).

Target: GTPase HRas (Homo sapiens) (UniProt P01112)
Assay: Ras wild-type GTP-binding inhibitors, SAR follow-up, biochemical, oxadiazole analogs, multiplex bead flow cytometry (AID 2053)
Details: GST-Ras beads, Bodipy-FL-GTP binding, Ki calculated from EC50

Chain of GTPase HRas (Homo sapiens) (P01112 whole entry, looked up): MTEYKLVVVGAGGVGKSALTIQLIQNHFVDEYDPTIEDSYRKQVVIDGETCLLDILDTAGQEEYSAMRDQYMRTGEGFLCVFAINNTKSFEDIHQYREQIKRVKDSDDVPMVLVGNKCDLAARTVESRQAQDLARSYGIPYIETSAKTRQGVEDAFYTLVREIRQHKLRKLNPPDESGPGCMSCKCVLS

Ki [nM] | SMILES
290 | COc1ccc(-c2noc(CCC(=O)N3CCN(c4ccccc4Cl)CC3)n2)cc1
290 | Cc1ccc(C)c(N2CCN(C(=O)CCc3nc(-c4ccc(Br)cc4)no3)CC2)c1
10 | Cc1ccc(C)c(N2CCN(C(=O)CCc3nc(-c4ccccc4Br)no3)CC2)c1
270 | COc1ccc(-c2noc(CCC(=O)N3CCN(c4cc(C)ccc4C)CC3)n2)cc1
140 | Cc1ccc(C)c(N2CCN(C(=O)CCc3nc(-c4ccccc4)no3)CC2)c1
10 | COc1ccc(-c2noc(CCC(=O)N3CCN(c4ccccc4F)CC3)n2)cc1
230 | COc1cccc(-c2noc(CCC(=O)N3CCN(c4cc(C)ccc4C)CC3)n2)c1
